# pEC50, pIC50: −log10 of the molar value.
# Target: human S1P1 (Homo sapiens (Human), UniProt P21453)
# Test: S1P1 binding assay (33P-S1P radioligand competition, CHO cell membranes)
# Settings: 33P-S1P competition, membranes of CHO cells expressing human S1P1; read-out: S1P1 Binding IC50
# Protocol: Membranes were prepared from CHO cells expressing human S1P1. Cells pellets (1×10^9 cells/pellet) were suspended in buffer containing 20 mM HEPES (4-(2-hydroxyethyl)-1-piperazineethanesulfonic acid), pH 7.5, 50 mM NaCl, 2 mM EDTA (Ethylenediaminetetraacetic acid) and Protease Inhibitor cocktail (Roche), and disrupted on ice using the Polytron homogenizer. The homogenate was centrifuged at 20,000 rpm (48,000 g) and the supernatant was discarded. The membrane pellets were resuspended in buffer containing 50 mM HEPES, pH 7.5, 100 mM NaCl, 1 mM MgCl2, 2 mM EDTA and stored in aliquots at −80° C. after protein concentration determination.
# Chain of human S1P1 (P21453 whole entry): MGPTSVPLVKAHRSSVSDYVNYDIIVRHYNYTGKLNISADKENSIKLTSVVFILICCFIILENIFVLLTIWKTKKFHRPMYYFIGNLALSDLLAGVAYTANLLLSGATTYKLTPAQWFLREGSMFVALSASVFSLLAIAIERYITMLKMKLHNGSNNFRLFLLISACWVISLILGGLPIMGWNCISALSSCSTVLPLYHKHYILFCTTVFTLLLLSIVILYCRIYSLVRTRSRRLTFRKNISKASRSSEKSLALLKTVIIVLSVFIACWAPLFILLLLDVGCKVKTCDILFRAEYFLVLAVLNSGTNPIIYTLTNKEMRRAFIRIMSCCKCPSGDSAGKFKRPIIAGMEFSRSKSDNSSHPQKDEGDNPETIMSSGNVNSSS
row,SMILES,pIC50
1,"COCCCCCC1CCc2cc([C@H]3CC[C@](N)(COP(=O)(O)O)C3)ccc2C1 (single isomer, unassigned) [Example 690]",8.52
2,"COCCCCCC1CCc2cc([C@@H]3CC[C@](N)(COP(=O)(O)O)C3)ccc2C1 (single isomer, unassigned) [Example 692]",8.64

# Same assay, conditions: phosphate examples; read-out: S1P1 Binding
row,SMILES,pIC50
1,N[C@@]1(COP(=O)(O)O)CC[C@@H](c2ccc3c(c2)CC[C@H](OCCOCc2ccccc2)C3)C1 [compound 581],> 8.00
2,CC1(C)c2cc([C@@H]3CC[C@](N)(COP(=O)(O)O)C3)ccc2C(=O)N1CCCc1ccccc1 [compound 615],6.00 to 7.00
3,"CC(C)=CCOCCO[C@@H]1CCc2cc(C3CCC(N)(COP(=O)(O)O)C3)ccc2C1 (single isomer, unassigned) [compound 580]",7.00 to 8.00
4,CCCCCC(=O)OC1CCc2cc([C@H]3CC[C@](N)(COP(=O)(O)O)C3)ccc2C1 (stereo partly shown) [compound 623],> 8.00
5,CC(C)CO/N=C1/CCc2cc([C@H]3CC[C@](N)(COP(=O)(O)O)C3)ccc2C1 [compound 666],6.00 to 7.00
6,CCCCCCO[C@@H]1CCc2cc([C@@H]3CC[C@](N)(COP(=O)(O)O)C3)ccc2C1 [compound 435],7.00 to 8.00
7,CCCCCCN1CCc2cc([C@H]3CC[C@](N)(COP(=O)(O)O)C3)ccc2C1=O [compound 416],5.00 to 6.00
8,CCCCCC(=O)N1CCc2cc([C@H]3CC[C@@](N)(COP(=O)(O)O)C3)ccc2C1 [compound 617],6.00 to 7.00

# Target: S1P1 (membranes prepared from S1P1/CHO cells) (Homo sapiens (Human), UniProt P21453)
# Test: Receptor [35S] GTPγS binding assay (S1P1 GTPγS)
# Type: biochemical
# Settings: GTPγS S1P1 binding assay, result in words
# Protocol: (§1) Receptor [^35S] GTPγS Binding Assays: (S1P1 GTPγS/S1P3 GTPγS)
# Compounds were loaded in a 384 Falcon v-bottom plate (0.5 μl/well in a 11 point, 3-fold dilution). Membranes prepared from S1P1/CHO cells or EDG3-Gal5-bla HEK293T cells (EDG3 equivalent S1P3) were added to the compound plate (40 μl/well, final protein 3 μg/well) with MULTIDROP®. [^35S] GTP (1250 Ci/mmol, Perkin Elmer) was diluted in assay buffer: 20 mM HEPES, pH7.5, 10 mM MgCl2, 150 mM NaCl, 1 mM EGTA (ethylene glycol tetraacetic acid), 1 mM DTT (Dithiothreitol), 10 μM GDP, 0.1% fatty acid free BSA, and 10 μg/ml Saponin to 0.4 nM. 40 μl of the [^35S] GTP solution was added to the compound plate with a final concentration of 0.2 nM. The reaction was kept at room temperature for 45 min. At the end of incubation, all the mixtures in the compound plate were transferred to Millipore 384-well FB filter plates via the VELOCITY11® Vprep liquid handler. The filter plate was washed with water 4 times by using the manifold Embla plate washer and dried at 60° C. for 45 min. MicroScint 20 scintillation fluid (30 μl) was added to each well for counting on the Packard TOPCOUNT®. […]
# Chain of S1P1 (membranes prepared from S1P1/CHO cells) (P21453 whole entry): as above
row,SMILES,activity as an agonist of S1P1
1,COc1ccccc1CCC1CCc2cc([C@H]3CC[C@](N)(COP(=O)(O)O)C3)ccc2C1 (stereo partly shown) [Example 697],possessed activity as an agonist of S1P1

# Same assay, conditions: [35S]GTPγS, S1P1/CHO cell membranes; read-out: GTPγS S1P1 EC50
row,SMILES,pEC50
1,"COCCCCCC1CCc2cc([C@H]3CC[C@](N)(COP(=O)(O)O)C3)ccc2C1 (single isomer, unassigned) [Example 690]",7.67
2,"COc1cccc(CCC2CCc3cc([C@H]4CC[C@](N)(COP(=O)(O)O)C4)ccc3C2)c1 (single isomer, unassigned) [Example 694]",7.41
3,"CCOCCCC1CCc2cc([C@H]3CC[C@](N)(COP(=O)(O)O)C3)ccc2C1 (single isomer, unassigned) [Example 696]",8.92

# Same assay, conditions: phosphate examples; read-out: S1P1 GTPγS
row,SMILES,pEC50
1,"N[C@@]1(COP(=O)(O)O)CC[C@@H](c2ccc3c(c2)CC[C@H](OCCOC2CCCCC2)C3)C1 (single isomer, unassigned) [compound 585]",7.00 to 8.00
2,N[C@@]1(COP(=O)(O)O)CC[C@@H](c2ccc3c(c2)CC[C@H](OCCOCc2ccccc2)C3)C1 [compound 581],> 8.00
3,CC1(C)c2cc([C@@H]3CC[C@](N)(COP(=O)(O)O)C3)ccc2C(=O)N1CCCc1ccccc1 [compound 615],6.00 to 7.00
4,"CC(C)=CCOCCO[C@@H]1CCc2cc(C3CCC(N)(COP(=O)(O)O)C3)ccc2C1 (single isomer, unassigned) [compound 580]",7.00 to 8.00
5,CCCCCC(=O)OC1CCc2cc([C@H]3CC[C@](N)(COP(=O)(O)O)C3)ccc2C1 (stereo partly shown) [compound 623],> 8.00
6,CC(C)CO/N=C1/CCc2cc([C@H]3CC[C@](N)(COP(=O)(O)O)C3)ccc2C1 [compound 666],6.00 to 7.00

# Target: S1P3 (membranes prepared from EDG3-Gal5-bla HEK293T cells) (Homo sapiens (Human), UniProt Q99500)
# Test: Receptor [35S] GTPγS binding assay (S1P3 GTPγS)
# Type: biochemical
# Settings: [35S]GTPγS, EDG3-Gal5-bla HEK293T cell membranes; read-out: GTPγS S1P3 EC50
# Protocol: as §1
# Compounds were loaded in a 384 Falcon v-bottom plate (0.5 μl/well in a 11 point, 3-fold dilution). Membranes prepared from S1P1/CHO cells or EDG3-Gal5-bla HEK293T cells (EDG3 equivalent S1P3) were added to the compound plate (40 μl/well, final protein 3 μg/well) with MULTIDROP®. [^35S] GTP (1250 Ci/mmol, Perkin Elmer) was diluted in assay buffer: 20 mM HEPES, pH7.5, 10 mM MgCl2, 150 mM NaCl, 1 mM EGTA (ethylene glycol tetraacetic acid), 1 mM DTT (Dithiothreitol), 10 μM GDP, 0.1% fatty acid free BSA, and 10 μg/ml Saponin to 0.4 nM. 40 μl of the [^35S] GTP solution was added to the compound plate with a final concentration of 0.2 nM. The reaction was kept at room temperature for 45 min. At the end of incubation, all the mixtures in the compound plate were transferred to Millipore 384-well FB filter plates via the VELOCITY11® Vprep liquid handler. The filter plate was washed with water 4 times by using the manifold Embla plate washer and dried at 60° C. for 45 min. MicroScint 20 scintillation fluid (30 μl) was added to each well for counting on the Packard TOPCOUNT®.
# A smaller value for GTPγS S1P1 EC50 value indicated greater activity for the compound in the GTPγS S1P1 binding assay. A larger value for the GTPγS S1P3 EC50 value indicated less activity in the GTPγS S1P3 binding assay. […] Thus the compounds of the present invention may be used in treating, preventing, or curing various S1P1 receptor-related conditions while reducing or minimizing the side effects due to S1P3 activity. The selectivity of the compounds of the present invention indicate their potential use in treating, preventing, or curing autoimmune and inflammatory diseases such as multiple sclerosis, rheumatoid arthritis, inflammatory bowel disease, lupus, psoriasis, or vascular diseases, while reducing or minimizing possible side effects due to S1P3 activity. Other potential uses of the compounds of the present invention include minimizing or reducing rejection of transplanted organs, while reducing or minimizing side effects due to S1P3 activity.
# Chain of S1P3 (membranes prepared from EDG3-Gal5-bla HEK293T cells) (Q99500 whole entry): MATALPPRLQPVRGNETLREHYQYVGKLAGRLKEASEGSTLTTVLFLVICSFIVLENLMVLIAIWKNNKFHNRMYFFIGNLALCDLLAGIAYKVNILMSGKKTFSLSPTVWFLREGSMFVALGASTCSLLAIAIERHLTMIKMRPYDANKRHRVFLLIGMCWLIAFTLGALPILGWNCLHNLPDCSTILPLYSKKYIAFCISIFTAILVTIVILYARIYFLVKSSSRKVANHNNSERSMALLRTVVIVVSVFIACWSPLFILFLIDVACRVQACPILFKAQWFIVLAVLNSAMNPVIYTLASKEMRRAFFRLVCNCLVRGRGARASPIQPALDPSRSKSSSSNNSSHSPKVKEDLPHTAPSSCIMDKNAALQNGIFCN
row,SMILES,pEC50
1,"CCOCCCC1CCc2cc([C@H]3CC[C@](N)(COP(=O)(O)O)C3)ccc2C1 (single isomer, unassigned) [Example 695]",< 6.20
2,"COc1cccc(OCC2CCc3cc([C@@H]4CC[C@](N)(COP(=O)(O)O)C4)ccc3C2)c1 (single isomer, unassigned) [Example 702]",< 6.20
3,"COCCCCCC1CCc2cc([C@H]3CC[C@](N)(COP(=O)(O)O)C3)ccc2C1 (single isomer, unassigned) [Example 690]",< 6.20
4,"COCCCCCC1CCc2cc([C@@H]3CC[C@](N)(COP(=O)(O)O)C3)ccc2C1 (single isomer, unassigned) [Example 692]",< 6.20
5,"COc1cccc(CCC2CCc3cc([C@H]4CC[C@](N)(COP(=O)(O)O)C4)ccc3C2)c1 (single isomer, unassigned) [Example 694]",< 5.90
6,COc1ccccc1CC[C@@H]1CCc2cc([C@@H]3CC[C@](N)(COP(=O)(O)O)C3)ccc2C1 [Example 699],< 6.20
7,"COc1ccccc1CC[C@@H]1CCc2cc([C@H]3CC[C@](N)(COP(=O)(O)O)C3)ccc2C1 (single isomer, unassigned) [Example 697]",< 6.00
8,"COc1cccc(OCC2CCc3cc([C@@H]4CC[C@](N)(COP(=O)(O)O)C4)ccc3C2)c1 (single isomer, unassigned) [Example 701]",< 5.90
9,"COc1ccccc1CCC1CCc2cc(C3CC[C@](N)(COP(=O)(O)O)C3)ccc2C1 (single isomer, unassigned) [Example 698]",< 6.20
10,"CCOCCCC1CCc2cc([C@H]3CC[C@](N)(COP(=O)(O)O)C3)ccc2C1 (single isomer, unassigned) [Example 696]",< 6.00
11,"COc1cccc(CCC2CCc3cc([C@H]4CC[C@](N)(COP(=O)(O)O)C4)ccc3C2)c1 (single isomer, unassigned) [Example 693]",< 5.38

# Same assay, conditions: phosphate examples; read-out: S1P3 GTPγS
row,SMILES,pEC50
1,"N[C@@]1(COP(=O)(O)O)CC[C@@H](c2ccc3c(c2)CC[C@H](OCCOC2CCCCC2)C3)C1 (single isomer, unassigned) [compound 585]",< 6.20
2,N[C@@]1(COP(=O)(O)O)CC[C@@H](c2ccc3c(c2)CC[C@H](OCCOCc2ccccc2)C3)C1 [compound 581],< 6.20
3,CC1(C)c2cc([C@@H]3CC[C@](N)(COP(=O)(O)O)C3)ccc2C(=O)N1CCCc1ccccc1 [compound 615],< 6.20
4,"CC(C)=CCOCCO[C@@H]1CCc2cc(C3CCC(N)(COP(=O)(O)O)C3)ccc2C1 (single isomer, unassigned) [compound 580]",< 6.20
5,CCCCCC(=O)OC1CCc2cc([C@H]3CC[C@](N)(COP(=O)(O)O)C3)ccc2C1 (stereo partly shown) [compound 623],< 6.20
6,CC(C)CO/N=C1/CCc2cc([C@H]3CC[C@](N)(COP(=O)(O)O)C3)ccc2C1 [compound 666],< 6.20
7,CCCCCCO[C@@H]1CCc2cc([C@@H]3CC[C@](N)(COP(=O)(O)O)C3)ccc2C1 [compound 435],< 6.20
8,CCCCCCN1CCc2cc([C@H]3CC[C@](N)(COP(=O)(O)O)C3)ccc2C1=O [compound 416],< 6.20
9,CCCCCC(=O)N1CCc2cc([C@H]3CC[C@@](N)(COP(=O)(O)O)C3)ccc2C1 [compound 617],< 6.20
